# Earlier results as cited in patent US8653059B2, “Heterocyclic compounds as dipeptidyl peptidase-IV inhibitors for the treatment or prevention of diabetes” (Merck Sharp & Dohme Corp., priority 2007, dated 2014).
# Tests used:
# cardiac allograft = conditions: rats; Transplantation 63: 1495-1500 (1997)
# hematopoiesis = conditions: mouse model of cyclophosphamide-induced neutropenia; WO 99/56753
# DPP-4 = target: T1, DPP-4 (Homo sapiens, UniProt P27487)
# T1 construct: GRF is rapidly degraded in plasma to GRF[3-44]; host or cells: plasma
# T1 sequence (P27487 whole entry, species assumed): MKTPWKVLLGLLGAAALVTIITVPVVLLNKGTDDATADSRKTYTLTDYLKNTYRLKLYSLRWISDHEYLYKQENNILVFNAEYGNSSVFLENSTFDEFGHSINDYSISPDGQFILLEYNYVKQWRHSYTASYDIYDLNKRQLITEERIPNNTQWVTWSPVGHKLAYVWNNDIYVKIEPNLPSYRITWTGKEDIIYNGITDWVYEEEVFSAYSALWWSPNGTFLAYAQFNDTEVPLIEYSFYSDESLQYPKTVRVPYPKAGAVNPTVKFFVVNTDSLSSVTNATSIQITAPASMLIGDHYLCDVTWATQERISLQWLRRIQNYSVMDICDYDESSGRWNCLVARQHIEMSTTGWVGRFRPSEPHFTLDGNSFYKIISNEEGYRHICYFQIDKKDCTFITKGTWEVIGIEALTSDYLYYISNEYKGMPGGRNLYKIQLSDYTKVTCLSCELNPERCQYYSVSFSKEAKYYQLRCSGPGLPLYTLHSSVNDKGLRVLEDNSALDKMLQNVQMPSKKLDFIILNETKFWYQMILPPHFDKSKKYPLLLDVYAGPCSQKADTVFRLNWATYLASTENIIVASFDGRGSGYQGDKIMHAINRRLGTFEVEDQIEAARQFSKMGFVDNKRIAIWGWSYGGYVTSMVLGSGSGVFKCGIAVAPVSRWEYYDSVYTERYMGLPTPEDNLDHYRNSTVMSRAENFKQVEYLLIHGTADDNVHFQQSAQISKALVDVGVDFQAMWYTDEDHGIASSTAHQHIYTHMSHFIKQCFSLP
molecule,measurement,setting,value
"CC(C)N1CCC(c2ccccc2)(c2ccccc2)CC1 [Prodipine, Pro-Pro-diphenyl-phosphonate]",cardiac allograft survival,cardiac allograft,double cardiac allograft survival in rats from day 7 to day 14
CC(C)[C@H](N)C(=O)N1CCC[C@H]1B(O)O [Val-Boro-Pro],hematopoiesis,hematopoiesis,stimulated hematopoiesis
diprotin A,degradation of GRF in plasma to GRF[3-44],DPP-4,prevented
